The compounds below were run against T1, recombinant N-terminal GST-tagged human Rho kinase 2 (ROCK2, amino acids 1-552) (Homo sapiens, UniProt O75116) (assay: In vitro Rho kinase assay (luciferase-based ATP consumption), ROCK2). Settings: ROCK2 IC50, recombinant GST-tagged human ROCK2, luciferase-based ATP consumption.
T1 construct: ROCK2, amino acids 1-552; purchased Invitrogen Inc. PV3759
Assay type: biochemical
Experimental: In Vitro Rho Kinase Assay
Rho kinase biochemical assays described below depend on firefly luciferase-based, indirect measurement of total ATP consumption by the kinase following incubation with substrate and ATP. 25 μl of Rho kinase assay buffer (20 mM Tris-HCL [pH 7.5], 1 mM MgCl2, 0.4 mM CaCl2, 0.15 mM EGTA, 0.1 mg/ml bovine serum albumin) containing 0.82 μg/ml of recombinant N-terminal GST-tagged human Rho kinase 1 (ROCK1, amino acids 1-535, Invitrogen Inc., cat. #PV-3691) or recombinant N-terminal GST-tagged human Rho kinase 2 (ROCK2, amino acids 1-552, Invitrogen Inc., cat #PV3759), 100 μg/ml S6 peptide substrate (related to amino acids 218-249 of the human 40S ribosomal protein S6, and suitable for ROCK1 or ROCK2, e.g. Upstate/Millipore Inc., cat #12-420), and 3 µM ATP are dispensed to wells of a 384 multi-well opaque plate. The plate is centrifuged for 30 seconds at approximately 200×g. 240 nl of test compound in DMSO is dispensed to each well by passive pin transfer. The lag phase of this in vitro kinase reaction permits addition of compounds soon after the reaction initiates. The reaction is allowed to incubate at 30° C. for 2 hours. The assay plates are sealed and maintained in a humidified environment. After 2 hours, 25 μl of easylite protein kinase assay reagent (Perkin-Elmer, Inc.) is dispensed. After an additional 10 minute incubation at room temperature (about 22° C.), luminescence activity is measured on a Molecular Devices Analyst multi-mode plate reader or other suitable plate reader. Kinase inhibition results in less ATP consumption, and therefore increased luminescence signal. Negative control activity is measured with DMSO lacking any test compound. The positive control is 2-methyl-1-(4-methylisoquinolin-5-ylsulfonyl)perhydro-1,4-diazepine hydrochloride (aka H-1152P, HCl salt). Efficacy is measured as a percentage of positive control activity. […] In some cases, kinase reactions and compound testing are performed in 1536 multi-well plates under similar conditions, with assay volumes appropriately scaled. The designation NT means the cited example was not tested.

T1 sequence (O75116 1-552): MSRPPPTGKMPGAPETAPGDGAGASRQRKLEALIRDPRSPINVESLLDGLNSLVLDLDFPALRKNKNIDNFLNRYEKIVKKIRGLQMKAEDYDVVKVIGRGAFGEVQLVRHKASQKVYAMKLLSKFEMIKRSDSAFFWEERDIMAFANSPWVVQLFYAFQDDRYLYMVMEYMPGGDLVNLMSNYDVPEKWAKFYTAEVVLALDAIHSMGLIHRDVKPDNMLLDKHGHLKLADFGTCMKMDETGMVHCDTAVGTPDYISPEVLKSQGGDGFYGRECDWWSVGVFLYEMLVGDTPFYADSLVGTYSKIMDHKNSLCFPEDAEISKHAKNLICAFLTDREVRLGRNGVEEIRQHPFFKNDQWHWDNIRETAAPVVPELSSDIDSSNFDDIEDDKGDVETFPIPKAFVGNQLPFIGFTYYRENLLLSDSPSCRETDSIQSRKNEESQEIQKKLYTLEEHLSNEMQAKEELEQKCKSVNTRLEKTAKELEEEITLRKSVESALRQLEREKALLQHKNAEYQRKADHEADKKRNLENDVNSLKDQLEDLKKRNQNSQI

**Q.** How did the IC50 turn out when Cc1c(-c2ccnc(N)n2)sc2ccc(C(=O)NCCc3ccccc3Cl)cc12 [Example 427, Cc1c(sc2ccc(cc12)C(═O)NCCc3ccccc3Cl)-c4ccnc(N)n4] was run?
**A.** < 5 µM

**Q.** With Cc1c(-c2ccnc(N)n2)sc2ccc(C(=O)NCc3ccc(Cl)cc3Cl)cc12 [Example 447, Cc1c(sc2ccc(cc12)C(═O)NCc3ccc(Cl)cc3Cl)-c4ccnc(N)n4] as the compound, how does the IC50 read?
**A.** > 5 µM

Same assay, conditions: recombinant GST-tagged human ROCK2, luciferase-based ATP consumption; read-out: ROCK2 IC50

**Q.** Which IC50 does the source give for Cc1c(-c2ccnc(N)n2)sc2ccc(C(=O)NCc3ccc(F)c(F)c3)cc12 [Example 413, Cc1c(sc2ccc(cc12)C(═O)NCc3ccc(F)c(F)c3)-c4ccnc(N)n4] here?
**A.** < 5 µM

**Q.** For Cc1c(-c2ccnc(N)n2)sc2ccc(C(=O)NCc3cc(F)cc(F)c3)cc12 [Example 414, Cc1c(sc2ccc(cc12)C(═O)NCc3cc(F)cc(F)c3)-c4ccnc(N)n4], which IC50 is on record?
**A.** < 5 µM

**Q.** Which IC50 does the source give for Cc1c(-c2ccnc(N)n2)sc2ccc(C(=O)NCCCN3CCOCC3)cc12 [Example 415, Cc1c(sc2ccc(cc12)C(═O)NCCCN3CCOCC3)-c4ccnc(N)n4] here?
**A.** < 5 µM

**Q.** With Cc1c(-c2ccnc(N)n2)sc2ccc(C(=O)NCCN(C(C)C)C(C)C)cc12 [Example 416, CC(C)N(CCNC(═O)c1ccc2sc(c(C)c2c1)-c3ccnc(N)n3)C(C)C] as the compound, how does the IC50 read?
**A.** < 5 µM

**Q.** Cc1c(-c2ccnc(N)n2)sc2ccc(C(=O)NC3CCCc4ccccc43)cc12 (stereo not drawn) [Example 417, Cc1c(sc2ccc(cc12)C(═O)NC3CCCc4ccccc34)-c5ccnc(N)n5] was tested. Which IC50 did it give?
**A.** < 5 µM

**Q.** Which IC50 does the source give for Cc1c(-c2ccnc(N)n2)sc2ccc(C(=O)NC(C)CCc3ccccc3)cc12 (stereo not drawn) [Example 418, CC(CCc1ccccc1)NC(═O)c2ccc3sc(c(C)c3c2)-c4ccnc(N)n4] here?
**A.** > 5 µM

**Q.** With Cc1c(-c2ccnc(N)n2)sc2ccc(C(=O)NCc3ccc(C(C)C)cc3)cc12 [Example 419, CC(C)c1ccc(CNC(═O)c2ccc3sc(c(C)c3c2)-c4ccnc(N)n4)cc1] as the compound, how does the IC50 read?
**A.** < 5 µM

**Q.** Cc1c(-c2ccnc(N)n2)sc2ccc(C(=O)NCc3ccc4c(c3)OCO4)cc12 [Example 420, Cc1c(sc2ccc(cc12)C(═O)NCc3ccc4OCOc4c3)-c5ccnc(N)n5] was tested. Which IC50 did it give?
**A.** < 5 µM

**Q.** With COc1cccc(CCNC(=O)c2ccc3sc(-c4ccnc(N)n4)c(C)c3c2)c1 [Example 421, COc1cccc(CCNC(═O)c2ccc3sc(c(C)c3c2)-c4ccnc(N)n4)c1] as the compound, how does the IC50 read?
**A.** < 5 µM

**Q.** Which IC50 does the source give for Cc1c(-c2ccnc(N)n2)sc2ccc(C(=O)N[C@H](CO)Cc3ccccc3)cc12 [Example 422, Cc1c(sc2ccc(cc12)C(═O)N[C@H](CO)Cc3ccccc3)-c4ccnc(N)n4] here?
**A.** < 5 µM

**Q.** COc1ccc(CCNC(=O)c2ccc3sc(-c4ccnc(N)n4)c(C)c3c2)cc1 [Example 423, COc1ccc(CCNC(═O)c2ccc3sc(c(C)c3c2)-c4ccnc(N)n4)cc1] was tested. Which IC50 did it give?
**A.** < 5 µM

**Q.** For COc1ccccc1CCNC(=O)c1ccc2sc(-c3ccnc(N)n3)c(C)c2c1 [Example 424, COc1ccccc1CCNC(═O)c2ccc3sc(c(C)c3c2)-c4ccnc(N)n4], which IC50 is on record?
**A.** < 5 µM

**Q.** How did the IC50 turn out when CCOc1ccccc1CNC(=O)c1ccc2sc(-c3ccnc(N)n3)c(C)c2c1 [Example 425, CCOc1ccccc1CNC(═O)c2ccc3sc(c(C)c3c2)-c4ccnc(N)n4] was run?
**A.** < 5 µM

**Q.** Which IC50 does the source give for COc1ccc(NC(=O)c2ccc3sc(-c4ccnc(N)n4)c(C)c3c2)cc1OC [Example 426, COc1ccc(NC(═O)c2ccc3sc(c(C)c3c2)-c4ccnc(N)n4)cc1OC] here?
**A.** < 5 µM

**Q.** With Cc1c(-c2ccnc(N)n2)sc2ccc(C(=O)NCCc3ccc(Cl)cc3)cc12 [Example 428, Cc1c(sc2ccc(cc12)C(═O)NCCc3ccc(Cl)cc3)-c4ccnc(N)n4] as the compound, how does the IC50 read?
**A.** < 5 µM

**Q.** How did the IC50 turn out when Cc1c(-c2ccnc(N)n2)sc2ccc(C(=O)NCCc3cccc(Cl)c3)cc12 [Example 429, Cc1c(sc2ccc(cc12)C(═O)NCCc3cccc(Cl)c3)-c4ccnc(N)n4] was run?
**A.** < 5 µM

**Q.** How did the IC50 turn out when Cc1c(-c2ccnc(N)n2)sc2ccc(C(=O)NC3CC(C)(C)NC(C)(C)C3)cc12 [Example 430, Cc1c(sc2ccc(cc12)C(═O)NC3CC(C)(C)NC(C)(C)C3)-c4ccnc(N)n4] was run?
**A.** < 5 µM

**Q.** CCN(CC)CCCC(C)NC(=O)c1ccc2sc(-c3ccnc(N)n3)c(C)c2c1 (stereo not drawn) [Example 431, CCN(CC)CCCC(C)NC(═O)c1ccc2sc(c(C)c2c1)-c3ccnc(N)n3] was tested. Which IC50 did it give?
**A.** > 5 µM

**Q.** Which IC50 does the source give for Cc1c(-c2ccnc(N)n2)sc2ccc(C(=O)NCc3ccc(F)c(Cl)c3)cc12 [Example 432, Cc1c(sc2ccc(cc12)C(═O)NCc3ccc(F)c(Cl)c3)-c4ccnc(N)n4] here?
**A.** < 5 µM

**Q.** Which IC50 does the source give for Cc1c(-c2ccnc(N)n2)sc2ccc(C(=O)N(CCC#N)Cc3ccccc3)cc12 [Example 433, Cc1c(sc2ccc(cc12)C(═O)N(CCC#N)Cc3ccccc3)-c4ccnc(N)n4] here?
**A.** < 5 µM

**Q.** Which IC50 does the source give for Cc1c(-c2ccnc(N)n2)sc2ccc(C(=O)NCCNC(=O)OC(C)(C)C)cc12 [Example 434, Cc1c(sc2ccc(cc12)C(═O)NCCNC(═O)OC(C)(C)C)-c3ccnc(N)n3] here?
**A.** < 5 µM

**Q.** Cc1c(-c2ccnc(N)n2)sc2ccc(C(=O)NCCc3c[nH]c4ccccc34)cc12 [Example 435, Cc1c(sc2ccc(cc12)C(═O)NCCc3c[nH]c4ccccc34)-c5ccnc(N)n5] was tested. Which IC50 did it give?
**A.** < 5 µM

**Q.** Cc1c(-c2ccnc(N)n2)sc2ccc(C(=O)NCc3ccc(C(C)(C)C)cc3)cc12 [Example 436, Cc1c(sc2ccc(cc12)C(═O)NCc3ccc(cc3)C(C)(C)C)-c4ccnc(N)n4] was tested. Which IC50 did it give?
**A.** > 5 µM

**Q.** Cc1c(-c2ccnc(N)n2)sc2ccc(C(=O)NCCCN(C)c3ccccc3)cc12 [Example 437, CN(CCCNC(═O)c1ccc2sc(c(C)c2c1)-c3ccnc(N)n3)c4ccccc4] was tested. Which IC50 did it give?
**A.** < 5 µM

**Q.** How did the IC50 turn out when Cc1c(-c2ccnc(N)n2)sc2ccc(C(=O)NCC3(O)CCCCC3)cc12 [Example 438, Cc1c(sc2ccc(cc12)C(═O)NCC3(O)CCCCC3)-c4ccnc(N)n4] was run?
**A.** < 5 µM

**Q.** For COc1cc(CNC(=O)c2ccc3sc(-c4ccnc(N)n4)c(C)c3c2)cc(OC)c1 [Example 439, COc1cc(CNC(═O)c2ccc3sc(c(C)c3c2)-c4ccnc(N)n4)cc(OC)c1], which IC50 is on record?
**A.** < 5 µM

**Q.** With COc1ccc(CNC(=O)c2ccc3sc(-c4ccnc(N)n4)c(C)c3c2)cc1OC [Example 440, COc1ccc(CNC(═O)c2ccc3sc(c(C)c3c2)-c4ccnc(N)n4)cc1OC] as the compound, how does the IC50 read?
**A.** < 5 µM

**Q.** With CCOC(=O)N1CCC(NC(=O)c2ccc3sc(-c4ccnc(N)n4)c(C)c3c2)CC1 [Example 442, CCOC(═O)N1CCC(CC1)NC(═O)c2ccc3sc(c(C)c3c2)-c4ccnc(N)n4] as the compound, how does the IC50 read?
**A.** < 5 µM

**Q.** For Cc1c(-c2ccnc(N)n2)sc2ccc(C(=O)NCCCNC(=O)OC(C)(C)C)cc12 [Example 443, Cc1c(sc2ccc(cc12)C(═O)NCCCNC(═O)OC(C)(C)C)-c3ccnc(N)n3], which IC50 is on record?
**A.** < 5 µM

**Q.** How did the IC50 turn out when Cc1c(-c2ccnc(N)n2)sc2ccc(C(=O)NCc3ccc(C(F)(F)F)cc3)cc12 [Example 444, Cc1c(sc2ccc(cc12)C(═O)NCc3ccc(cc3)C(F)(F)F)-c4ccnc(N)n4] was run?
**A.** > 5 µM

**Q.** Cc1c(-c2ccnc(N)n2)sc2ccc(C(=O)NCc3cccc(C(F)(F)F)c3)cc12 [Example 445, Cc1c(sc2ccc(cc12)C(═O)NCc3cccc(c3)C(F)(F)F)-c4ccnc(N)n4] was tested. Which IC50 did it give?
**A.** < 5 µM

**Q.** With Cc1c(-c2ccnc(N)n2)sc2ccc(C(=O)NCc3ccc(Cl)c(Cl)c3)cc12 [Example 446, Cc1c(sc2ccc(cc12)C(═O)NCc3ccc(Cl)c(Cl)c3)-c4ccnc(N)n4] as the compound, how does the IC50 read?
**A.** > 5 µM

**Q.** With Cc1c(-c2ccnc(N)n2)sc2ccc(C(=O)NC3CCN(Cc4ccccc4)C3)cc12 (stereo not drawn) [Example 448, Cc1c(sc2ccc(cc12)C(═O)NC3CCN(C3)Cc4ccccc4)-c5ccnc(N)n5] as the compound, how does the IC50 read?
**A.** < 5 µM

**Q.** For COc1ccc(OC)c(CCNC(=O)c2ccc3sc(-c4ccnc(N)n4)c(C)c3c2)c1 [Example 449, COc1ccc(OC)c(CCNC(═O)c2ccc3sc(c(C)c3c2)-c4ccnc(N)n4)c1], which IC50 is on record?
**A.** < 5 µM

**Q.** With Cc1c(-c2ccnc(N)n2)sc2ccc(C(=O)NCc3ccc(N(C)C)cc3)cc12 [Example 450, CN(C)c1ccc(CNC(═O)c2ccc3sc(c(C)c3c2)-c4ccnc(N)n4)cc1] as the compound, how does the IC50 read?
**A.** > 5 µM

**Q.** How did the IC50 turn out when COc1ccc(CNC(=O)c2ccc3sc(-c4ccnc(N)n4)c(C)c3c2)cc1O [Example 451, COc1ccc(CNC(═O)c2ccc3sc(c(C)c3c2)-c4ccnc(N)n4)cc1O] was run?
**A.** < 5 µM

**Q.** For Cc1c(-c2ccnc(N)n2)sc2ccc(C(=O)NC3CCN(Cc4ccccc4)CC3)cc12 [Example 452, Cc1c(sc2ccc(cc12)C(═O)NC3CCN(CC3)Cc4ccccc4)-c5ccnc(N)n5], which IC50 is on record?
**A.** < 5 µM

**Q.** How did the IC50 turn out when Cc1c(-c2ccnc(N)n2)sc2ccc(C(=O)NCc3ccccc3OC(F)(F)F)cc12 [Example 453, Cc1c(sc2ccc(cc12)C(═O)NCc3ccccc3OC(F)(F)F)-c4ccnc(N)n4] was run?
**A.** > 5 µM

**Q.** Cc1c(-c2ccnc(N)n2)sc2ccc(C(=O)NCCc3ccc(S(N)(=O)=O)cc3)cc12 [Example 454, Cc1c(sc2ccc(cc12)C(═O)NCCc3ccc(cc3)S(N)(═O)═O)-c4ccnc(N)n4] was tested. Which IC50 did it give?
**A.** < 5 µM

**Q.** For COc1ccc(C(=O)CNC(=O)c2ccc3sc(-c4ccnc(N)n4)c(C)c3c2)cc1 [Example 455, COc1ccc(cc1)C(═O)CNC(═O)c2ccc3sc(c(C)c3c2)-c4ccnc(N)n4], which IC50 is on record?
**A.** < 5 µM

Reference: US20080021026A1, “BENZOTHIOPHENE INHIBITORS OF RHO KINASE” (priority 2006, published 2008)
